Source: ChEMBL document CHEMBL5360612, “Macrocyclic Carbon-Linked Pyrazoles As Novel Inhibitors of MCL-1” (ACS Med Chem Lett, 2023)
Values after ≈ are worked out from the molar mass of the structure shown. Values joined by “and” are separate entries in the source; they are usually repeats but may differ in a detail not shown here. Equal values may be shown once.

What was measured:
[1] = biological target: Induced myeloid leukemia cell differentiation protein Mcl-1 (Homo sapiens, UniProt Q07820); assay: Displacement of Cy5-labeled BIM BH3 peptide (H3N-(C/Cy5Mal)-WIAQELRRIGDEFN-OH) from MCL-1 (unknown origin) assessed as inhibition constant incubated for 60 mins by HTRF assay
[2] = test system: MOLP-8; assay: Induction of apoptosis in human MOLP8 cells using luminescent caspase-3/7 as substrate incubated for 2 hrs by Caspase-Glo 3/7 assay; format: functional, cell-based; conditions: MOLP-8, 2 h
[3] = Ratio of AC50 for induction of apoptosis in human MOLP8 cells using luminescent caspase-3/7 as substrate to Ki for displacement of Cy5-labeled BIM BH3 peptide (H3N-(C/Cy5Mal)-WIAQELRRIGDEFN-OH) from MCL-1 (unknown origin) assessed as inhibition constant
[4] = Solubility of compound in pH 2 buffer incubated for 3 days by LC-MS/MS analysis; format: physicochemical; conditions: time 3 day
[5] = Solubility of compound in pH 7 buffer incubated for 3 days by LC-MS/MS analysis; format: physicochemical; conditions: time 3 day
[6] = test system: KMS-12-PE; assay: Induction of apoptosis in human KMS-12-PE cells; format: functional, cell-based
[7] = test system: KMS-12-PE; assay: Induction of apoptosis in MCL-1 knockout human KMS-12-PE cells overexpressing BFL-1; format: functional, cell-based
[8] = Chromatographic hydrophobicity index, log D of the compound at pH 7.4 by UPLC-TOF analysis; format: physicochemical; conditions: buffer
[9] = Intrinsic clearance in human liver microsomes; format: ADME, Microsome; conditions: read-out: CLH
[10] = Intrinsic clearance in mouse liver microsomes; format: ADME, Microsome; conditions: read-out: CLH
[11] = biological target: T1, Cytochrome P450 1A2 (Homo sapiens, UniProt P05177); assay: Inhibition of recombinant human CYP1A2 by fluorescence microplate reader assay; format: ADME
T1 sequence (P05177 whole entry): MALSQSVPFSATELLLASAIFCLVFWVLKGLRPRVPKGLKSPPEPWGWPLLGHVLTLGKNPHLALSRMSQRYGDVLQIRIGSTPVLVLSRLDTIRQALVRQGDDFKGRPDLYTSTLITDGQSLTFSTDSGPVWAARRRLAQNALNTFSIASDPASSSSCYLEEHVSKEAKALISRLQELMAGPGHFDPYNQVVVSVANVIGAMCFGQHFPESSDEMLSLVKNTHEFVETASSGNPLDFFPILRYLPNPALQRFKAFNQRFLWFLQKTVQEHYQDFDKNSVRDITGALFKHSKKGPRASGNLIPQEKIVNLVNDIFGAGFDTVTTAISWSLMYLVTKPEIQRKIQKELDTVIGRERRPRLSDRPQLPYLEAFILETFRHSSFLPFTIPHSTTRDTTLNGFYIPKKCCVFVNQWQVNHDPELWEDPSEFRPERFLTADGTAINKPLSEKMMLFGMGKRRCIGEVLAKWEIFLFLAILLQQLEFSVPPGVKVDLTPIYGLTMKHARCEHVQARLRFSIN

[12] = biological target: Cytochrome P450 2C19 (Homo sapiens, UniProt P33261); assay: Inhibition of recombinant human CYP2C19 by fluorescence microplate reader assay; format: ADME
[13] = biological target: T2, Cytochrome P450 2C8 (Homo sapiens, UniProt P10632); assay: Inhibition of recombinant human CYP2C8 by fluorescence microplate reader assay; format: ADME
T2 sequence (P10632 whole entry): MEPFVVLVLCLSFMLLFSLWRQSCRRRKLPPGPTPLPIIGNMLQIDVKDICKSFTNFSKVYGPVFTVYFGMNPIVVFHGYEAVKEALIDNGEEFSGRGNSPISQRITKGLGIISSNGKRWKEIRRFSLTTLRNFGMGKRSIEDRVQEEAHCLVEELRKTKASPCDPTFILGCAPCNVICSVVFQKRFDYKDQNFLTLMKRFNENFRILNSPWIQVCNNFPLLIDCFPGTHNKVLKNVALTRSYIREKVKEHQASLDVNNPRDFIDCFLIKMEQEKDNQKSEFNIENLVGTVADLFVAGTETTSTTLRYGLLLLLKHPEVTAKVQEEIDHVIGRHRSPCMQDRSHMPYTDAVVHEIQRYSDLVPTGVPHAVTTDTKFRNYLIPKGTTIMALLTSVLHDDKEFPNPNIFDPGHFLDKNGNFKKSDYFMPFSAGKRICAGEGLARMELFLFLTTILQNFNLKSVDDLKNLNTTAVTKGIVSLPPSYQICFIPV

[14] = biological target: Cytochrome P450 2C9 (Homo sapiens, UniProt P11712); assay: Inhibition of recombinant human CYP2C9 by fluorescence microplate reader assay; format: ADME
[15] = biological target: Cytochrome P450 2D6 (Homo sapiens, UniProt P10635); assay: Inhibition of recombinant human CYP2D6 by fluorescence microplate reader assay; format: ADME
[16] = biological target: Cytochrome P450 3A4 (Homo sapiens, UniProt P08684); assay: Inhibition of recombinant human CYP3A4 by fluorescence microplate reader assay; format: ADME
[17] = Cardiotoxicity in human iPSC-CM assessed as calcium transients at 0.1 uM by CTCM assay; format: toxicity, cell-based
[18] = Cardiotoxicity in human iPSC-CM assessed as calcium transients at 0.3 uM by CTCM assay; format: toxicity, cell-based
[19] = Cardiotoxicity in human iPSC-CM assessed as calcium transients at 1 uM by CTCM assay; format: toxicity, cell-based
[20] = Cardiotoxicity in human iPSC-CM assessed as calcium transients at 3 uM by CTCM assay; format: toxicity, cell-based
[21] = Cardiotoxicity in human iPSC-CM assessed as calcium transients at 10 uM by CTCM assay; format: toxicity, cell-based
[22] = biological target: Voltage-gated inwardly rectifying potassium channel KCNH2 (Homo sapiens, UniProt Q12809); assay: […] from human ERG by PatchXpress assay; format: toxicity
Chain of Voltage-gated inwardly rectifying potassium channel KCNH2 (Q12809 whole entry): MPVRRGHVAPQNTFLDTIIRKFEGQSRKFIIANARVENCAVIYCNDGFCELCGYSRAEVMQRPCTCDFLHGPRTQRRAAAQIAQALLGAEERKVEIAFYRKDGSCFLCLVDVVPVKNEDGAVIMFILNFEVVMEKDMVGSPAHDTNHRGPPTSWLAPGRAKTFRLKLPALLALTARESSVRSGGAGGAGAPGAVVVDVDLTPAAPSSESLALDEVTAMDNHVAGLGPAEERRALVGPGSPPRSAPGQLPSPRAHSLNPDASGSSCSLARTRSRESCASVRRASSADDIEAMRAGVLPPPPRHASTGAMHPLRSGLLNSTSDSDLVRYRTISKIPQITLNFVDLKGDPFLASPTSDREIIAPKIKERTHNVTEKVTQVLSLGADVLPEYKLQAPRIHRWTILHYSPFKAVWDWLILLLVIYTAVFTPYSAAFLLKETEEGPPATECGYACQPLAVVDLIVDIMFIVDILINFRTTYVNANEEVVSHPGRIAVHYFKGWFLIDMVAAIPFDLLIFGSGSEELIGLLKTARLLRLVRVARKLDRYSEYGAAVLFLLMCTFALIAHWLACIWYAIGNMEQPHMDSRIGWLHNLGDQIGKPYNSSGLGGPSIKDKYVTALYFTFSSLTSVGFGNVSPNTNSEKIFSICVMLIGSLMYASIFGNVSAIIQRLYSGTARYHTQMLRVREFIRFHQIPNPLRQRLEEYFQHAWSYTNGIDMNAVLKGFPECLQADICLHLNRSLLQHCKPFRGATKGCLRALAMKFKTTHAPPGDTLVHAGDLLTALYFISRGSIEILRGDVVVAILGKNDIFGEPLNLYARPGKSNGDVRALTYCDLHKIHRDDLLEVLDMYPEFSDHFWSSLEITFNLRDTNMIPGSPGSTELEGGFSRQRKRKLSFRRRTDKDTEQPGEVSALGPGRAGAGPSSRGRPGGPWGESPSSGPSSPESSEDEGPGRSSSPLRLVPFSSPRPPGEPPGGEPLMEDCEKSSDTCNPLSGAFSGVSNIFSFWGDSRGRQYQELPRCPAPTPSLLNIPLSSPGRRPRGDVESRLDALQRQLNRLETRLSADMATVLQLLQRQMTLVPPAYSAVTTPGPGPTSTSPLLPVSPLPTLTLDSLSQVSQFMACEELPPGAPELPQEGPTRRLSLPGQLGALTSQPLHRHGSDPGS

Chain of Induced myeloid leukemia cell differentiation protein Mcl-1 (Q07820 whole entry): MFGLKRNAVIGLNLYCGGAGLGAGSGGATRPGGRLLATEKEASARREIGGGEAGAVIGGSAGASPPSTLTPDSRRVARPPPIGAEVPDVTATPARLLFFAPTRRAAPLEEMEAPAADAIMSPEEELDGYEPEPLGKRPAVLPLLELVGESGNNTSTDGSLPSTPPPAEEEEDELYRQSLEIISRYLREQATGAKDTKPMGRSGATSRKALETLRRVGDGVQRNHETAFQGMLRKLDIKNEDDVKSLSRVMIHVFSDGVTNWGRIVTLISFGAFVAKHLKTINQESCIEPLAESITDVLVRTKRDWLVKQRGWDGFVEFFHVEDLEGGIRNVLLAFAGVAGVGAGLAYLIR
Chain of Cytochrome P450 2C9 (P11712 whole entry): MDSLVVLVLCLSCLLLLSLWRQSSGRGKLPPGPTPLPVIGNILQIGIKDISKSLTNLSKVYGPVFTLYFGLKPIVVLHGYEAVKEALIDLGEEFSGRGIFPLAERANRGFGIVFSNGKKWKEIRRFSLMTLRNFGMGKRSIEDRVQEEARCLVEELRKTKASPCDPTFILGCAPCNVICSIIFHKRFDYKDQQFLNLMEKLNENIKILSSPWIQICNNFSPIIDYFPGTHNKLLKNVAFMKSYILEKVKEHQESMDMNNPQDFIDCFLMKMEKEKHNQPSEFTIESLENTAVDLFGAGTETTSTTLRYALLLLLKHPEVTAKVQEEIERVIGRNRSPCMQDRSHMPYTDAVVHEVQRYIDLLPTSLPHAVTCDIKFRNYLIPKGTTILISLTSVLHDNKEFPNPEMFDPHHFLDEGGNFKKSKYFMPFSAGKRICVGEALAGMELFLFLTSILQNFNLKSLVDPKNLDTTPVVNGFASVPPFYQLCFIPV
Chain of Cytochrome P450 2D6 (P10635 whole entry): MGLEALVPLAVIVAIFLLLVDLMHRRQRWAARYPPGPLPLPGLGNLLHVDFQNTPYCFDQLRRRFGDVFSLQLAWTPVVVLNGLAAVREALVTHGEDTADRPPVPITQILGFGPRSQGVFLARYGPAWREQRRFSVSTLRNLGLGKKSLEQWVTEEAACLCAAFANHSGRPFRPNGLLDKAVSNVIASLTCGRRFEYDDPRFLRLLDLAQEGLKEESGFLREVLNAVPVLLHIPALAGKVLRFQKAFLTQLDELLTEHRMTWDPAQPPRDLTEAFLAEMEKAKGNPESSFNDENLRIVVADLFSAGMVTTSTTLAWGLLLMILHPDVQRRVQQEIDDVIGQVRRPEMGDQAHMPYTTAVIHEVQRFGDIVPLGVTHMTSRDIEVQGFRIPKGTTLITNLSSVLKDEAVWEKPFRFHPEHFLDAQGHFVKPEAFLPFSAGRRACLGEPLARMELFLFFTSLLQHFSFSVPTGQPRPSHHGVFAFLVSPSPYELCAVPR
Chain of Cytochrome P450 2C19 (P33261 whole entry): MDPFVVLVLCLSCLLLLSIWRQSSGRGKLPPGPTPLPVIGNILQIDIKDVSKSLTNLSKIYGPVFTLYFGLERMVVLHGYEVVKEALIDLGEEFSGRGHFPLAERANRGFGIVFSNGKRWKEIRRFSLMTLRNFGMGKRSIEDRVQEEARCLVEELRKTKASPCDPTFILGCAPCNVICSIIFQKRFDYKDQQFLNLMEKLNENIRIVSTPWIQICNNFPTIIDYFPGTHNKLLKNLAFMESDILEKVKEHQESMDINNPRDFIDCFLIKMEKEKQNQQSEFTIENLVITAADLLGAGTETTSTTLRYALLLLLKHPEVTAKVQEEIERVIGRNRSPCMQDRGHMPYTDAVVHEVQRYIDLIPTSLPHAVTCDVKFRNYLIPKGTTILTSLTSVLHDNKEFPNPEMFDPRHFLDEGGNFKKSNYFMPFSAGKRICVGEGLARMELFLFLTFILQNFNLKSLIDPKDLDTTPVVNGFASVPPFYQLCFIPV
Chain of Cytochrome P450 3A4 (P08684 whole entry): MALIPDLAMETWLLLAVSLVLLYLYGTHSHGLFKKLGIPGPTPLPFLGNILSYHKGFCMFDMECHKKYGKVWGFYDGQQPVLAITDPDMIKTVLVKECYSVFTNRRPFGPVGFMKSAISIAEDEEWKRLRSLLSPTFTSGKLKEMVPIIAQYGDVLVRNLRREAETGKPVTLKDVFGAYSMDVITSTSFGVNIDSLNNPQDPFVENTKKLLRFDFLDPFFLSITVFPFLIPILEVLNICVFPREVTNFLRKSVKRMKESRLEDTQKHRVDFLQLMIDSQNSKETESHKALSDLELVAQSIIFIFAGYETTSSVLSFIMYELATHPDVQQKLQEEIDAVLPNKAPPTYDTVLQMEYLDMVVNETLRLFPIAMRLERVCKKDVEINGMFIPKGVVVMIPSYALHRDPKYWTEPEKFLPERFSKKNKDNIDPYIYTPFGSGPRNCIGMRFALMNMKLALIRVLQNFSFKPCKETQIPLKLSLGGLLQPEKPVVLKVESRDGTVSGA

SMILES | Ki [1] | solubility at 72 h [4] | solubility at 72 h [5] | AC50 [2] | Ratio [3] | other results
COCCOCc1nn(C)c2c1CSCc1cc(n(C)n1)CCc1cc(c3ccccc3c1)OCCCc1c(C(=O)O)n(C)c3c-2c(Cl)ccc13 | 0.023 nM | < 0.06 µM | 590 µM (≈ 430 µg/mL) | 43 nM | 1870 | –
Cc1nn(C)c2c1CSCc1cc(n(C)n1)CSc1cc(c3ccccc3c1)OCCCc1c(C(=O)O)n(C)c3c-2c(Cl)ccc13 | 0.04 nM | < 0.27 µM | 9.7 µM (≈ 6.52 µg/mL) | 54 nM | 1350 | –
Cc1nn(C)c2c1CSCc1cc(n(C)n1)CCc1cc(c3ccc(F)cc3c1)OCCCc1c(C(=O)[O-])n(C)c3c-2c(Cl)ccc13.[Na+] | 0.041 nM | < 0.03 µM | 550 µM | 10 nM | 243 | –
Cn1nc2cc1CCc1cc(c3ccc(F)cc3c1)OCCCc1c(C(=O)O)[nH]c3c(c(Cl)ccc13)-c1c(cnn1C)CSC2 | 0.047 nM | – | – | 202 nM | 4300 | –
COCCOCCn1nc(C)c2c1CSCc1cc(n(C)n1)CCc1cc(c3ccc(F)cc3c1)OCCCn1c(C(=O)O)c(C)c3c-2c(Cl)ccc31 | – | – | – | 12 nM | – | –
Cn1nc2cc1CSc1cc(c3ccccc3c1)OCCCc1c(C(=O)O)n(C)c3c(c(Cl)ccc13)-c1c(cnn1C)CSC2 | – | < 0.55 µM | < 0.49 µM | – | 738 and >900 | –
COCCn1c(C(=O)O)c2c3ccc(Cl)c(c31)-c1c(cnn1C)CSCc1cc(n(C)n1)CCc1cc(c3ccc(F)cc3c1)OCCC2 | 0.022 nM | < 0.02 µM | 10.4 µM (≈ 7.3 µg/mL) | 43 nM | 1954 | –
CN(C)CCn1c(C(=O)O)c2c3ccc(Cl)c(c31)-c1c(cnn1C)CSCc1cc(n(C)n1)CCc1cc(c3ccc(F)cc3c1)OCCC2 | 0.034 nM | – | – | 120 nM | 3530 | –
Cc1nn(C)c2c1CSCc1cc(n(C)n1)CCc1cc(c3ccccc3c1)OCCCc1c(C(=O)[O-])n(C)c3c-2c(Cl)ccc13.[Na+] | 0.032 nM | < 0.04 µM | 210 µM | 45 nM | 1406 | –

Continued by falling Ki [1], values first:

Ki [1] | solubility at 72 h [4] | solubility at 72 h [5] | SMILES | AC50 [2] | Ratio [3] | other results
0.02 nM | < 0.23 µM | 520 µM (≈ 388 µg/mL) | COCCOCCn1c(C(=O)O)c2c3ccc(Cl)c(c31)-c1c(cnn1C)CSCc1cc(n(C)n1)CCc1cc(c3ccc(F)cc3c1)OCCC2 | 52 nM | 2600 | –
0.02 nM | 580 µM (≈ 439 µg/mL) | 550 µM (≈ 417 µg/mL) | Cn1nc2cc1CCc1cc(c3ccc(F)cc3c1)OCCCc1c(C(=O)O)n(CCN3CCOCC3)c3c(c(Cl)ccc13)-c1c(cnn1C)CSC2 | 76 nM | 3800 | AC50 [6]: 407 nM; AC50 [7]: > 30000 nM; chromatographic logD [8]: 2.53; microsomal CLint [9]: 43 µL/min/mg; microsomal CLint [10]: 24 µL/min/mg; IC50 [11]: > 20000 nM; IC50 [12]: > 20000 nM; IC50 [13]: 5600 nM; IC50 [14]: > 20000 nM; IC50 [15]: 10500 nM; IC50 [16]: 9500 nM; Activity [17]: Non-Toxic; Activity [18]: Non-Toxic; Activity [19]: Non-Toxic; Activity [20]: Non-Toxic; Activity [21]: Non-Toxic; IC50 [22]: > 30000 nM
0.018 nM | < 0.02 µM | 580 µM (≈ 433 µg/mL) | COCCOCc1nn(C)c2c1CSCc1cc(n(C)n1)CCc1cc(c3ccc(F)cc3c1)OCCCc1c(C(=O)O)n(C)c3c-2c(Cl)ccc13 | 14 nM | 777 | AC50 [6]: 111 nM; AC50 [7]: > 30000 nM; chromatographic logD [8]: 2.49; microsomal CLint [9]: 48 µL/min/mg; microsomal CLint [10]: 157 µL/min/mg; IC50 [11]: > 20000 nM; IC50 [12]: > 20000 nM; IC50 [13]: 9600 nM; IC50 [14]: 19000 nM; IC50 [15]: > 20000 nM; IC50 [16]: > 20000 nM; Activity [17]: Non-Toxic; Activity [18]: Non-Toxic; Activity [19]: Non-Toxic; Activity [20]: Non-Toxic; Activity [21]: Non-Toxic; IC50 [22]: > 30000 nM
0.013 nM | < 0.29 µM | 460 µM (≈ 350 µg/mL) | COCCOCCc1nn(C)c2c1CSCc1cc(n(C)n1)CCc1cc(c3ccc(F)cc3c1)OCCCc1c(C(=O)O)n(C)c3c-2c(Cl)ccc13 | 16 nM | 1230 | –
